The results in this text go back to patent US11000033B2, “Ketone or oxime compound, and herbicide” (NISSAN CHEMICAL CORPORATION, priority 2014, dated 2021).

Common to all, as to assay type: in vivo
Series [1] concerns Monochoria vaginalis. Put plainly: Test Example 1: herbicidal activity, application before weed generation in submerged conditions (symbol C). Conditions: application herbicide amount 320 g/ha. The gist of the method: (§1)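 In a flooded pot test with alluvial soil, the emulsion-formulated compound was diluted with water to a predetermined amount and applied to the floodwater immediately on the sowing day. Pots were held in a greenhouse at 25–30 °C for 3 weeks before each weed was rated.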

Series [2] has as its system Echinochloa oryzacola Vasing. Description: Test Example 1: herbicidal activity, application before weed generation in submerged conditions (symbol A). Particulars: application herbicide amount 320 g/ha. The gist of the method:
as §1

The subject of series [3] is wheat. Description: Test Example 5: effect on crop by foliage application, plastic box (symbol e). Particulars: 320 g/ha, 3 weeks after application. The gist of the method: (§2)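 Sterilized diluvial soil, plastic box (21 × 13 × 7 cm); spot sowing, ~1.5 cm soil cover; greenhouse 25–30° C.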
Series [4] relates to Digitaria ciliaris. Put plainly: Test Example 4: herbicidal effect by soil treatment (symbol F). Conditions: application herbicide amount 320 g/ha. Put shortly: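 Seeds were sown in sterilized diluvial soil, covered with about 1.5 cm of soil, and the soil surface was sprayed with a water-diluted emulsion of the compound at a predetermined rate. Plants grew in a greenhouse at 25° C. to 30° C.; effects were scored visually 3 weeks after application.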

For series [5], the system named is Chenopodium album. Description: Test Example 5: herbicidal effect by foliage application, plastic box (symbol O). Particulars: 320 g/ha, 3 weeks after application. The gist of the method:
(§3)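 Herbicide, formulated as an emulsion and diluted in water, is sprayed onto the aerial parts of 14-day seedlings. These were grown at 25° C. to 30° C. in sterilized diluvial soil; effects are graded after 3 weeks.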

In series [6] the test system is wheat. Put plainly: Test Example 4: effect on crop by soil treatment (symbol e). Particulars: application herbicide amount 320 g/ha. Put shortly:
(§4)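 Plants are raised in a greenhouse (25° C. to 30° C.) from spot-sown seed, which sits under about 1.5 cm of sterilized diluvial soil in a box shared with weed species.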

For series [7], the system named is Galium spurium. Description: Test Example 5: herbicidal effect by foliage application, plastic box (symbol Q). Conditions: 320 g/ha, 3 weeks after application. The gist of the method:
as §3

Series [8] relates to rapeseed. Description: Test Example 4: effect on crop by soil treatment (symbol g). Particulars: application herbicide amount 320 g/ha. The gist of the method: as §4
Series [9] has as its system soybean. Description: Test Example 4: effect on crop by soil treatment (symbol d). Particulars: application herbicide amount 320 g/ha. Put shortly:
as §4

In series [10] the test system is Veronica persica. Put plainly: Test Example 5: herbicidal effect by foliage application, plastic box (symbol R). Conditions: 320 g/ha, 3 weeks after application. The gist of the method:
as §3

The test system of series [11] is Lolium multiflorum Lam. Put plainly: Test Example 5: herbicidal effect by foliage application, plastic box (symbol K). Conditions: 320 g/ha, 3 weeks after application. Put shortly:
as §3

Series [12] relates to Echinochloa crus-galli var. crus-galli. Put plainly: Test Example 5: herbicidal effect by foliage application, plastic box (symbol H). Conditions: 320 g/ha, 3 weeks after application. Put shortly:
as §3

Series [13] relates to Amaranthus retroflexus. Description: Test Example 5: herbicidal effect by foliage application, plastic box (symbol N). Particulars: 320 g/ha, 3 weeks after application. Put shortly: as §3
Series [14] deals with beet. Put plainly: Test Example 5: effect on crop by foliage application, plastic box (symbol f). Particulars: 320 g/ha, 3 weeks after application. The gist of the method: as §2
In series [15] the test system is directly sowed rice plant. Description: Test Example 3: effect on crop by foliage application, Wagner pot (symbol b). Conditions: application herbicide amount 320 g/ha, Table 24. The gist of the method:
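Greenhouse culture at 25–30 °C of seeded rice, Cyperus difformis, Leptochloa chinensis and Echinochloa crus-galli var. crus-galli, in alluvial soil held under 0.1–0.5 cm of water in a Wagner pot.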

For series [16], the system named is soybean. Description: Test Example 5: effect on crop by foliage application, plastic box (symbol d). Particulars: 320 g/ha, 3 weeks after application. Put shortly: as §2

Structures are written as SMILES.

Take `COCCON=C(CC1CC(O)=C(c2c(C)cc(-n3cc(Cl)cn3)cc2C)C1=O)C(C)C` (stereo not shown) [9-022]: the “C (Monochoria vaginalis) herbicidal effect grade” value in series [1] was 0 (Herbicidal ratio of 5% or lower (almost no effect)). Besides, in [2], the “A (Echinochloa oryzacola Vasing.) herbicidal effect grade” value was 5 (Herbicidal ratio of 90% or more (almost completely withered)). Besides, the “e: wheat, effect on crop grade” value in [3] is listed as 0 (Herbicidal ratio of 5% or lower (almost no effect)). Also, the “Herbicidal effect grade, F: Digitaria ciliaris” value in [4] is recorded as 5 (Herbicidal ratio of 90% or more (almost completely withered)). In addition, the “O: Chenopodium album, herbicidal effect grade” value in series [5] is reported as 0 (Herbicidal ratio of 5% or lower (almost no effect)). Moreover, the “Effect on crop grade, e: wheat” value in [6] is given as 0 (Herbicidal ratio of 5% or lower (almost no effect)). Further, the “Q: Galium spurium, herbicidal effect grade” value in series [7] was 0 (Herbicidal ratio of 5% or lower (almost no effect)). In addition, in series [8], the “Effect on crop grade, g: rapeseed” value is on record as 0 (Herbicidal ratio of 5% or lower (almost no effect)). In addition, the “Effect on crop grade, d: soybean” value in [9] is reported as 0 (Herbicidal ratio of 5% or lower (almost no effect)). The “R: Veronica persica, herbicidal effect grade” value in [10] is given as 0 (Herbicidal ratio of 5% or lower (almost no effect)). Further, the “K: Lolium multiflorum Lam., herbicidal effect grade” value in series [11] is 2 (Herbicidal ratio of 20% or higher and lower than 40%). For the same molecule, the “H: Echinochloa crus-galli var. crus-galli, herbicidal effect grade” value in series [12] is reported as 5 (Herbicidal ratio of 90% or more (almost completely withered)). Also, the “N: Amaranthus retroflexus, herbicidal effect grade” value in series [13] is listed as 0 (Herbicidal ratio of 5% or lower (almost no effect)). Also, the “f: beet, effect on crop grade” value in series [14] is listed as 0 (Herbicidal ratio of 5% or lower (almost no effect)). In addition, the “b (directly sowed rice plant) effect on crop grade” value in series [15] is 5 (Herbicidal ratio of 90% or more (almost completely withered)). Moreover, the “d: soybean, effect on crop grade” value in [16] is reported as 0 (Herbicidal ratio of 5% or lower (almost no effect)).
